Test results as given in patent US20050261264A1, “Rare-earth ternary complex” (priority 2000, published 2005).

Tests used:
Format in all cases: physicochemical
[1] = Miscibility with solvents, visual evaluation at 5 wt %; parameters: key: ⊚: dissolves at room temperature; ◯: dissolves when heated for 5 minutes at 40° C.; Δ: dissolves under heating, but cooling precipitates crystals; X: does not dissolve; details: complex added at 5 wt %
Protocol: (§1) The miscibility of the rare earth complex with various media was evaluated as follows.
1) Miscibility with Solvents

[2] = Miscibility with a polymer matrix, visual evaluation
Protocol: as §1
2) Miscibility with a Polymer Matrix
The rare earth complex serving as the sample was added in the concentrations listed with the evaluation criteria below relative to various media, and the miscibility was visually evaluated according to the following criteria. • ⊚: dissolves up to 30 wt % • ◯: dissolves up to 5 wt % • Δ: disperses up to 5 wt %, but there is turbidity • X: repelled at the polymer surface

[3] = Number of moles of bound water per mole of complex (TG-DTA); details: for Bound water (number of moles of bound water per mole of complex): Table 1, dried samples for the ternary complexes
Protocol: The number of moles of bound water per mole of complex was measured using a TG-DTA 2000 from MAC Science.
A 20 g quantity of Eu(PMS)3 was added to 100 mL of isopropanol, then 43 g ([…] the molar amount of the Eu(PMS)3) of triphenylphosphine oxide (hereinafter referred to as TPPO) was added, and the system was refluxed for 3 hours, and then gradually cooled. The resulting white powder was filtered off. The white powder thus obtained was washed with hot n-hexane, and recrystallized with water-methanol to obtain 44 g of Eu(PMS)3(TPPO)8 in the form of white acicular crystals (yield: 85%). The TG-DTA was measured for these crystals, and it was found from the weight reduction at 100° C. that the number of moles of bound water per mole of complex was 2.93. The IR, NMR, UV absorption characteristics, and elemental analysis results for the obtained Eu(PMS)3(TPPO)8(H2O)2.93 are given below.
Eu(PMS)3(TPPO)8(H2O)2.93 obtained by the above synthesis method was dried in vacuo for 3 hours at 140° C. and a reduced pressure of […]. TG-DTA measurement for the resulting white powder was carried out to obtain a weight reduction at 100° C. It was found from the obtained value that the number of moles of bound water per mole of complex was 0.18.

[4] = Luminescence quantum yield and luminescence intensity in solution
Protocol: (§2) The intensity of luminescence and the luminescence quantum yield, the quotient of dividing the number of photons emitted from a sample by the number of photons absorbed into the sample, were measured with an SS-25 from JASCO Corporation.
The luminescence quantum yield of an acetonitrile solution of the Eu(PMS)3(TPPO)8 obtained in Example 1 (europium ion concentration: 0.05 mol/L) was measured (excitation wavelength: 465 nm, maximum luminescence wavelength: 612 nm, luminescence wavelength used in measurement: 612 nm).
The solutions prepared in Examples 12 to 14 and Comparative Examples 7 to 9 and Comparative Example B were measured for luminescence intensity at the respective maximum luminescence wavelengths.
The relative luminescence intensity of the solutions used in Examples 12 to 14 and Comparative Example B: (luminescence intensity in each of Examples 12 to 14)/(luminescence intensity in Comparative Example 7) was calculated, letting 1 be the luminescence intensity in Comparative Example 7 (solution of a rare earth complex in which the ligand Z was not coordinated).
Similarly, the relative luminescence intensity in Comparative Example 9: (luminescence intensity in Comparative Example 9)/(luminescence intensity in Comparative Example 8) was calculated, letting 1 be the luminescence intensity in Comparative Example 8 (solution of a known β-diketone-type of rare earth complex in which the ligand Z was not coordinated). The relative luminescence intensity of the solution used in Comparative Example B was 1.6 times.
The luminescence quantum yield of an acetone-d6 solution of the Nd(PMS)3(TPPO)8 obtained in Example 2 (neodymium ion concentration: 0.05 mol/L) was measured (excitation wavelength: 585 nm, maximum luminescence wavelength: 1064 nm, luminescence wavelength used in measurement: 1064 nm).
The solutions prepared in Examples 15 and 16 and Comparative Examples 10 were measured for luminescence intensity at the respective maximum luminescence wavelengths. The relative luminescence intensity in Examples 15 and 16: (luminescence intensity in each of Examples 15 and 16)/(luminescence intensity in Comparative Example 10) was calculated, letting 1 be the luminescence intensity in Comparative Example 10 (rare earth complex in which the ligand Z was not coordinated).

[5] = Luminescence quantum yield and luminescence intensity in PMMA polymer matrix composition; details: PMMA rod; for Luminescence quantum yield: rare earth ion 0.7 wt %
Protocol: as §2
A 1 mL quantity of refined anhydrous methyl methacrylate (MMA), 0.5 mg of AIBN, and 148 mg (0.7 wt %) as the rare earth ion concentration) of the Eu (PMS)3 (TPPO)8 obtained in Example 1 were mixed, the mixture was transferred to a Pyrex tube, and the inside of the tube was deaerated and then sealed. By reacting for 5 hours at 60° C., the polymerization of MMA was carried out. The resulting PMMA containing Eu(PMS)3 (TPPO)8 was taken out of the Pyrex tube, and a rod-shaped polymer matrix composition was obtained.
The polymer matrix compositions prepared in Examples 17 to 19 and Comparative Example 11 were measured for luminescence intensity at the respective maximum luminescence wavelengths. The relative luminescence intensity in Examples 17 to 19: (luminescence intensity in each of Examples 17 to 19)/(luminescence intensity in Comparative Example 11) was calculated, letting 1 be the luminescence intensity in Comparative Example 11 (rare earth complex in which the ligand Z was not coordinated).
A rod-shaped polymer matrix composition containing […] was obtained in the same manner as in Example 17, except that 148 mg (rare earth ion concentration: 0.7 wt %) of the Nd(PMS)3 (TPPO)8 obtained in Example 2 was used instead of Eu(PMS)3 (TPPO)8.
The polymer matrix compositions prepared in Examples 20 and 21 and Comparative Example 12 were measured for luminescence intensity at the respective maximum luminescence wavelengths. The relative luminescence intensity in Examples 20 and 21: (luminescence intensity in each of Examples 20 and 21)/(luminescence intensity in Comparative Example 12) was calculated, letting 1 be the luminescence intensity in Comparative Example 12 (rare earth complex in which the ligand Z was not coordinated).

[6] = before drying (crystals as obtained), weight reduction at 100° C.
[7] = acetonitrile solution, Eu 0.05 mol/L, relative to Eu(PMS)3 (Comparative Example 7) = 1
[8] = acetonitrile solution, europium ion 0.05 mol/L, excitation 465 nm, luminescence 612 nm
[9] = Eu 0.7 wt %, relative to Eu(PMS)3 (Comparative Example 11) = 1
[10] = excitation 465 nm, luminescence 612 nm

Row | Compound | Miscibility, Acetone [1] | Miscibility, Chloroform [1] | Miscibility, Toluene [1] | Miscibility, Water [1] | Miscibility, Epoxy resin [2] | Miscibility, Nafion [2] | Miscibility, PMMA [2] | Bound water (number of moles of bound water per mole of complex) [3] | Number of moles of bound water per mole of complex [3, 6] | Relative luminescence intensity [4, 7] | Luminescence quantum yield [4, 8] | Relative luminescence intensity [5, 9] | Luminescence quantum yield [5, 10] | Number of moles of bound water per mole of complex ([3]; after drying in vacuo at 140° C.) | Relative luminescence intensity ([4]; acetone-d6 solution, Nd 0.05 mol/L, relative to Nd(PMS)3 (Comparative Example 10) = 1) | Luminescence quantum yield ([4]; acetone-d6 solution, neodymium ion 0.05 mol/L, excitation 585 nm, luminescence 1064 nm) | Relative luminescence intensity ([5]; Nd 0.7 wt %, relative to Nd(PMS)3 (Comparative Example 12) = 1) | Luminescence quantum yield ([5]; excitation 585 nm, luminescence 1064 nm)
1 | O=S(=O)([N-]S(=O)(=O)C(F)(F)F)C(F)(F)F.O=S(=O)([N-]S(=O)(=O)C(F)(F)F)C(F)(F)F.O=S(=O)([N-]S(=O)(=O)C(F)(F)F)C(F)(F)F.O=S(c1ccccc1)c1ccccc1.O=S(c1ccccc1)c1ccccc1.O=S(c1ccccc1)c1ccccc1.O=S(c1ccccc1)c1ccccc1.O=S(c1ccccc1)c1ccccc1.O=S(c1ccccc1)c1ccccc1.O=S(c1ccccc1)c1ccccc1.O=S(c1ccccc1)c1ccccc1.[Eu+3] [Eu(PMS)3(DPSO)8] | ⊚ | ◯ | ◯ | X | ◯ (dissolves up to 5 wt %) | ◯ (dissolves up to 5 wt %) | ◯ (dissolves up to 5 wt %) | 0.00 | water was not coordinated | 41.7 | 32.0% | 710 | 39.0% |  |  |  |  | 
2 | O=P(c1ccccc1)(c1ccccc1)c1ccccc1.O=P(c1ccccc1)(c1ccccc1)c1ccccc1.O=P(c1ccccc1)(c1ccccc1)c1ccccc1.O=P(c1ccccc1)(c1ccccc1)c1ccccc1.O=P(c1ccccc1)(c1ccccc1)c1ccccc1.O=P(c1ccccc1)(c1ccccc1)c1ccccc1.O=P(c1ccccc1)(c1ccccc1)c1ccccc1.O=P(c1ccccc1)(c1ccccc1)c1ccccc1.O=S(=O)([N-]S(=O)(=O)C(F)(F)F)C(F)(F)F.O=S(=O)([N-]S(=O)(=O)C(F)(F)F)C(F)(F)F.O=S(=O)([N-]S(=O)(=O)C(F)(F)F)C(F)(F)F.[Eu+3] [Eu(PMS)3(TPPO)8] | ⊚ | ⊚ | ◯ | X | ◯ (dissolves up to 5 wt %) | ◯ (dissolves up to 5 wt %) | ◯ (dissolves up to 5 wt %) | 0.18 | 2.93 | 45.1 | 5.6% | 15466 | 19.0% | 0.18 |  |  |  | 
3 | O=S(=O)([N-]S(=O)(=O)C(F)(F)F)C(F)(F)F.O=S(=O)([N-]S(=O)(=O)C(F)(F)F)C(F)(F)F.O=S(=O)([N-]S(=O)(=O)C(F)(F)F)C(F)(F)F.O=S(c1ccccc1)c1ccccc1.O=S(c1ccccc1)c1ccccc1.O=S(c1ccccc1)c1ccccc1.O=S(c1ccccc1)c1ccccc1.O=S(c1ccccc1)c1ccccc1.O=S(c1ccccc1)c1ccccc1.O=S(c1ccccc1)c1ccccc1.O=S(c1ccccc1)c1ccccc1.[Nd+3] [Nd(PMS)3(DPSO)8] | ⊚ | ◯ | ◯ | X | ◯ (dissolves up to 5 wt %) | ◯ (dissolves up to 5 wt %) | ◯ (dissolves up to 5 wt %) | 0.00 |  |  |  |  |  |  | 1.6 | 1.3% | 90 | 0.9%
